We go through 5 compounds from US20210255193A1, “LYSINE REACTIVE PROBES AND USES THEREOF” (The Scripps Research Institute, priority 2017, published 2021).

Holding throughout (experiment): direct labeling of recombinantly expressed proteins by gel-based ABPP (WT vs lysine mutant)
Format in all cases: binding

The target of one assay is T1, FAH (Homo sapiens, UniProt P16930).
T1 construct: expressed in transfected cells; host or cells: HEK 293T
T1 sequence (P16930 1-419): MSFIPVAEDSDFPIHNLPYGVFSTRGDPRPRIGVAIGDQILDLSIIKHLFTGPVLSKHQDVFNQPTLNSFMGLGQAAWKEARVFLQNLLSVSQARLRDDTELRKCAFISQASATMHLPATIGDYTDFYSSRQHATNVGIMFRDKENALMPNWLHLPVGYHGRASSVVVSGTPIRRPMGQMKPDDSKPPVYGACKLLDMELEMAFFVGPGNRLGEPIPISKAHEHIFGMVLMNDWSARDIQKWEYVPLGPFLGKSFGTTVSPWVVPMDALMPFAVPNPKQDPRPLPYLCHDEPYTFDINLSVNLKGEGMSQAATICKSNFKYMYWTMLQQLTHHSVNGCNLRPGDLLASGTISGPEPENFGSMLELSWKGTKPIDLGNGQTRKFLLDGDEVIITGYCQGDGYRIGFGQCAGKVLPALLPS
As to conditions: FAH K241, KR mutant; 10 μM probe, 1 h.

Another assay deals with T2, G6PD (Homo sapiens, UniProt P11413).
T2 construct: expressed in transfected cells; host or cells: HEK 293T
T2 sequence (P11413 whole entry): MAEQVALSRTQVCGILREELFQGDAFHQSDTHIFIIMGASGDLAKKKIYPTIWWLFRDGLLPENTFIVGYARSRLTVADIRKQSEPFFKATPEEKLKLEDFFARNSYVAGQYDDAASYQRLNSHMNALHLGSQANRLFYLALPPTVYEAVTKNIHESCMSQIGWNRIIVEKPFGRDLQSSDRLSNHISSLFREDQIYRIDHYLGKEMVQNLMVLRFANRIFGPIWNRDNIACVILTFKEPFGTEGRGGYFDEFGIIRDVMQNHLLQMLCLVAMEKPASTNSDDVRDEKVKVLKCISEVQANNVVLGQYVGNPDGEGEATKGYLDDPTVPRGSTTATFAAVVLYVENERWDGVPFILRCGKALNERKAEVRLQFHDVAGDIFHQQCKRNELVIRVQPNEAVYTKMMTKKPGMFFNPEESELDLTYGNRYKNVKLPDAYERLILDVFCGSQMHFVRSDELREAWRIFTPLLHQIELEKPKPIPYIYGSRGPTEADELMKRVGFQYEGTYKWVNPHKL
The following applies: G6PD K171, KR mutant; 10 μM probe, 1 h.

The target of the next assay is T3, PNPO (Homo sapiens, UniProt Q9NVS9).
T3 construct: Flag; expressed in transfected cells; host or cells: HEK 293T, transient transfection, soluble lysate
T3 sequence (Q9NVS9 1-261): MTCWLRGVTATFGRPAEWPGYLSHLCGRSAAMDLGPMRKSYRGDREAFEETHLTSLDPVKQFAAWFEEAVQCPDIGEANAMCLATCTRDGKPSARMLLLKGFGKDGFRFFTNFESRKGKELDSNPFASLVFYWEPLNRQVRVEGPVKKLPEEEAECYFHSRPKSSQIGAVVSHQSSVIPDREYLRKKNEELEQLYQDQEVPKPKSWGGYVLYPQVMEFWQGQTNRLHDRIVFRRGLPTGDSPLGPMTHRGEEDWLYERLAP
As to conditions: PNPO K100, KR mutant; 10 μM probe, 1 h.

As for `C#CCCC(=O)Oc1c(F)c(F)c(S(=O)(=O)[O-])c(F)c1F.[Na+]` [probe 1, reference compound], the “labeling of WT vs mutant protein by probe” value is recorded as “ND (the WT did not label more than the mutant (<2x difference quantified))” at FAH, “ND (the WT did not label more than the mutant (<2x difference quantified))” at G6PD and “HD (the WT labeled more than the mutant (>4x difference quantified))” on PNPO.
For the compound `C#CCCC(=O)Oc1c(F)c(F)c(F)c(F)c1F` [probe 6, Pentafluorophenyl 4-pentynoate], the “labeling of WT vs mutant protein by probe” value is “ND (the WT did not label more than the mutant (<2x difference quantified))” on G6PD and “PD (the WT labeled more than the mutant (>2x difference quantified))” at PNPO.
`C#Cc1ccc(C(=O)Oc2c(F)c(F)cc(F)c2F)cc1` [probe 12, 2,3,5,6-Tetrafluorophenyl 4-ethynylbenzoate]: the “labeling of WT vs mutant protein by probe” value at FAH is “PD (the WT labeled more than the mutant (>2x difference quantified))”; at G6PD it was “ND (the WT did not label more than the mutant (<2x difference quantified))”; at PNPO it was “PD (the WT labeled more than the mutant (>2x difference quantified))”.
Consider `C#Cc1ccc(C(=O)Oc2c(F)c(F)c(F)c(F)c2F)cc1` [probe 13, Pentafluorophenyl 4-ethynylbenzoate], for which the “labeling of WT vs mutant protein by probe” value at G6PD and at PNPO was “ND (the WT did not label more than the mutant (<2x difference quantified))” throughout.
Regarding `Cc1cc(C)n2c1C=C1C=CC(CCC(=O)Oc3c(F)c(F)c(S(=O)(=O)[O-])c(F)c3F)=[N+]1[B-]2(F)F.[Na+]` [probe 18, reference compound], the “labeling of WT vs mutant protein by probe” value at FAH is reported as “PD (the WT labeled more than the mutant (>2x difference quantified))”; at G6PD, “NL (labelling of the WT protein was not detected by gel (intensity for WT less than 2x background))”; on PNPO, “PD (the WT labeled more than the mutant (>2x difference quantified))”.
